Measured values reported in paper PMC8399847, “Hybrid Quinolinyl Phosphonates as Heterocyclic Carboxylate Isosteres: Synthesis and Biological Evaluation against Topoisomerase 1B (TOP1B)” (Pharmaceuticals, 2021).

Tests used:
[1] = system: A549 (human lung adenocarcinoma cells); assay: CCK-8 cytotoxicity assay, A549; format: cell-based; settings: A549, 48 h, read-out: Cytotoxicity IC50 Lung A549
Procedure: (§1) The cytotoxicity of the newly synthesized quinolinylphosphonates 7 was evaluated in vitro by testing their antiproliferative activities against several human cancer cell lines: A549 (human lung adenocarcinoma cells), SKOV3 (human ovarian carcinoma), and HEK293 (human embryonic kidney). In order to analyze the selective cytotoxicity facing exclusively cancerous cell lines, cytotoxicity against non-cancerous cell lines (MRC-5, lung fibroblast cells) was also evaluated. Cell counting kit (CCK-8) assay was employed to assess growth inhibition and, cell proliferation inhibitory activities of compounds that are listed in Table 1 as IC50 values. […] According to the data presented in Table 1, in general, all these phosphorated derivatives present higher selective cytotoxicity in the A549 cell line than in the other two cell lines, SKOV3 and HEK293, although slight differences are observed compared to human ovarian carcinoma (SKOV3).
(§2) Cells were cultured according to the supplier’s instructions, A549 (ATCC® CCL-185), SKOV3 (ATCC® HTB-77), HEK293 (CLS GmbH), MRC-5 (ATCC® CCL-171™). Cells were seeded in 96-well plates at a density of 2–2.5 × 10^3 cells per well and incubated overnight in 0.1 mL of media supplied with 10% Fetal Bovine Serum (Lonza, Basel, Switzerland) in a 5% CO2 incubator at 37 °C. On day 2, drugs (concentration between 0.5–50 μM) were added and samples were incubated for 48 h. After treatment, 10 μL of cell counting kit-8 was added to each well for an additional 2 h incubation at 37 °C. The absorbance of each well was determined by an Automatic Elisa Reader System at 450 nm wavelength. CPT was purchased from Sigma-Aldrich and used as a positive control.

[2] = system: SKOV3 (human ovarian carcinoma); assay: CCK-8 cytotoxicity assay, SKOV3; format: cell-based; settings: SK-OV-3, 48 h, read-out: Cytotoxicity IC50 Ovarian SKOV3
Procedure: as §1, §2

[3] = system: L. infantum promastigotes; assay: In vitro iRFP-L. infantum promastigotes viability assay; format: cell-based; settings: Leishmania infantum; 96 h exposure, EC50 ± SD
Procedure: The effect of the new quinolinylphosphonate derivatives 7 synthesized was assessed on both free-living promastigotes and intramacrophage amastigotes of L. infantum as it is described in experimental protocols. Primary cultures of intramacrophage amastigotes were obtained from splenic explants from 6-weeks infected Balb/c mice with L. infantum-iRFP promastigotes. The infrared fluorescence emitted by both stage forms of the parasite was used as viability criterium, using 0.5% DMSO as negative control (100% viability) and […] AMB as a positive control (0% viability).
A genetically modified strain of L infantum BCN 150, expressing iRFP protein from Rhodopseudomonas palustris bacteriophytochrome (iRFP-L. infantum), was used to obtain the EC50 values of the different compounds against promastigotes, through the detection of the near-infrared radiation emitted by living parasites exposed to tested molecules. Thus, the viability of promastigotes was calculated after recording their fluorescence at 708 nm in an Odyssey (Li-Cor, NE, USA) infrared imaging.
iRFP-L. infantum promastigotes were cultured using M199 medium (Gibco, Thermo Fisher Scientific, MA, USA), supplemented with 25 mM 4-(2-hydroxyethyl)-1-piperazineethanesulfonic acid (HEPES) pH 6.9, […] hemin, 10 mM glutamine, 0.1 mM adenosine, 0.01 mM folic acid, 1× RPMI 1640 vitamin mix (Sigma, Darmstadt, Germany), 10% (v/v) heat-inactivated foetal bovine serum (Gibco, Thermo Fisher Scientific, MA, USA), 50 U/mL penicillin and 50 µg/mL streptomycin. The assay was carried out, seeding 1 × 10^6 cells/mL of iRFP-L. infantum promastigotes into 96-well optical bottom black plates (Thermo Scientific, MA, USA) along with different concentrations of compound to each well. The final concentration of DMSO, the solvent used to prepare the stock solutions of compounds, was never higher than 0.1%. All of the compounds’ concentrations and controls were assayed by triplicate.

[4] = system: leishmanial TOP1B (LTOP1B); assay: LTOP1B relaxation activity assay; format: biochemical, Leishmania; settings: 100 µM of compound, 1 min
Procedure: The inhibition of relaxation activity of LTOP1B by the compounds was tested at 100 µM. The reactions were performed for 1 min in the way described in the experimental protocols section. The percentage of inhibition was calculated by measuring the intensity of the band corresponding to the supercoiled DNA when the different DNA topoisomers were separated in an agarose gel.
Purification of leishmanial DNA topoisomerase 1B (LTOP1B) was carried out as reported previously. Shortly, LTOP1B was purified using the deficient in TOP1 activity yeast strain, EKY3 MAT α ura3–52 his3Δ20ting, from the union of the bicistronic expression vector pESC-URA to both subunits of LTOP1B. The yeast cells were grown in a yeast synthetic drop-out medium without uracil (Sigma) supplemented with 2% raffinose (w/v) to OD600: 0.8–1 and induced for 10 h with 2% galactose (w/v). After that, the cells were harvested, washed with cold TEEG buffer (50 mM Tris–HCl pH 7.4, 1 mM EDTA, 1 mM EGTA, 10% glycerol), resuspended in 15 mL of 1× TEEG buffer supplemented with 0.2 M KCl and a protease inhibitors cocktail (Thermo Scientific, Waltham, MA, USA) and lysed. Protein extract obtained was loaded on a 5 mL Heparin Sepharose column (GE Healthcare, MA, USA). LTOP1B enzyme was eluted at 4 °C with a discontinuous gradient of KCl (0.2, 0.4, 0.6 M) in TEEG buffer.
Leishmanial TOP1B activity was tested by the relaxation of supercoiled plasmid DNA assay. Each reaction contained: one unit of purified LTOP1B enzyme, 100 µM of each compound, 0.5 μg of supercoiled pSK DNA, 10 mM Tris-HCl buffer pH 7.5, 5 mM MgCl2, 0.1 mM EDTA, 15 µg/mL bovine serum albumin, and 150 mM KCl. The final volume of each reaction was 20 µL. Reaction mixtures were incubated for 1 min at 37 °C and stopped by the addition of a 4 µL loading buffer (5% sarkosyl, 0.12% bromophenol blue, 25% glycerol). The DNA topoisomers were resolved in 1% agarose gels by electrophoresis in 0.1 M Tris borate EDTA buffer (pH 8.0) at 2 V/cm for 16 h and visualized with UV illumination after ethidium bromide (0.5 μg/mL) staining. The percentage of inhibition was calculated by measuring the intensity of the band corresponding to the supercoiled DNA after separating and staining the different DNA topoisomers. This analysis was performed using the GeneTools from Syngene software (Version 4.3.8, MD, USA).

Row | SMILES | IC50 [1] [µM] | IC50 [2] [µM] | EC50 [3] [µM] | LTOP1B Inhibition [4] [%] | melting point [°C]
1 | CCOP(=O)(OCC)c1cccc2c(-c3ccc(C)cc3)cc(-c3ccc(F)c(F)c3)nc12 [7k, Diethyl (2-(3,4-difluorophenyl)-4-(p-tolyl)quinolin-8-yl)phosphonate] | 2.72 ± 0.37 | 10.6 ± 1.13 | 2.59 ± 0.48 | 77.02 | 133 to 135
2 | CCOP(=O)(OCC)c1ccc2nc(-c3ccc(F)cc3)cc(-c3ccc(C)cc3)c2c1 [7v, Diethyl (2-(4-fluorophenyl)-4-(p-tolyl)quinolin-6-yl)phosphonate] | 0.84 ± 0.23 | 41.6 ± 10 | 7.02 ± 0.94 | 43.25 | 153 to 155
3 | CCOP(=O)(OCC)c1ccc2nc(-c3ccc(F)cc3)cc(-c3ccc(F)cc3)c2c1 [7t, Diethyl (2,4-bis(4-fluorophenyl)quinolin-6-yl)phosphonate] | 2.85 ± 1.26 | > 50 | 16.7 ± 0.72 | 37.86 | 161 to 164
4 | CCOP(=O)(OCC)c1cccc2c(-c3ccc(F)cc3)cc(-c3ccccc3)nc12 [7g] | 2.27 ± 0.32 | 9.29 ± 1.79 | 16.1 ± 1.94 | 16.49 | 172 to 174
5 | CC(C)OP(=O)(OC(C)C)c1cccc2c(-c3ccccc3)cc(-c3ccc(F)cc3)nc12 [7l, Diisopropyl (2-(4-fluorophenyl)-4-phenylquinolin-8-yl)phosphonate] | 5.01 ± 2.7 | 18.7 ± 1.98 | 9.57 ± 0.4 | 3.55 | 107 to 109
6 | CC(C)OP(=O)(OC(C)C)c1cccc2c(-c3ccc(F)cc3)cc(-c3ccc(F)c(F)c3)nc12 [7o, Diisopropyl (2-(3,4-difluorophenyl)-4-(4-fluorophenyl)quinolin-8-yl)phosphonate] | 6.79 ± 3.87 | 22.1 ± 4.47 | 19.3 ± 1.79 | 73.27 | 144 to 146
7 | CCOP(=O)(OCC)c1ccc2nc(-c3ccc(F)c(F)c3)cc(-c3ccc(C)cc3)c2c1 [7x, Diethyl (2-(3,4-difluorophenyl)-4-(p-tolyl)quinolin-6-yl)phosphonate] | 3.05 ± 0.86 | > 50 | 21.3 ± 2.34 | 43.84 | 158 to 160
8 | CCOP(=O)(OCC)c1cccc2c(-c3ccccc3)cc(-c3ccc(OC)cc3)nc12 [7c, Diethyl (2-(4-methoxyphenyl)-4-phenylquinolin-8-yl)phosphonate] | 12.6 ± 1.3 | 25 ± 3.6 | 9.46 ± 1.67 | 45.45 | 120 to 122
9 | Cc1ccc(-c2cc(-c3ccc(F)cc3)nc3c(P(=O)(OC(C)C)OC(C)C)cccc23)cc1 [7p, Diisopropyl (2-(4-fluorophenyl)-4-(p-tolyl)quinolin-8-yl)phosphonate] | 6.84 ± 1.74 | 12.1 ± 1.68 | 5.01 ± 0.35 | 41.62 | 121 to 123
10 | CCOP(=O)(OCC)c1cccc2c(-c3ccccc3)cc(-c3ccc(F)cc3)nc12 [7b, Diethyl (4-Phenyl-2-(fluorophenyl)quinolin-8-il) phosphonate] | 2.16 ± 0.29 | 5.29 ± 1.42 | 7.63 ± 0.76 | 24.43 | 116 to 118
11 | CCOP(=O)(OCC)c1cccc2c(-c3ccccc3)cc(-c3ccccc3OC)nc12 [7d, Diethyl (2-(2-methoxyphenyl)-4-phenylquinolin-8-yl)phosphonate] | 12.3 ± 4.1 | 19.4 ± 1.6 | 11.4 ± 0.62 | 46.41 | 121 to 123
12 | CCOP(=O)(OCC)c1cccc2c(-c3ccc(F)cc3)cc(-c3ccc(F)cc3)nc12 [7h, Diethyl (2,4-bis(4-fluorophenyl)quinolin-8-yl)phosphonate] | 3.07 ± 0.22 | 9.79 ± 0.59 | 8.43 ± 0.92 | 22.44 | 121 to 123
13 | CCOP(=O)(OCC)c1ccc2nc(-c3ccc(F)c(F)c3)cc(-c3ccc(F)cc3)c2c1 [7u, Diethyl (2-(3,4-difluorophenyl)-4-(4-fluorophenyl)quinolin-6-yl)phosphonate] | 4.33 ± 1.11 | > 50 | 7.07 ± 0.61 | 50.24 | 130 to 132
14 | CCOP(=O)(OCC)c1ccc2nc(-c3ccc(F)cc3)cc(-c3ccccc3)c2c1 [7r, Diethyl (2-(4-fluorophenyl)-4-phenylquinolin-6-yl)phosphonate] | 2.8 ± 1.24 | 3.03 ± 1.24 | 15.2 ± 1.14 | 1.94 | 137 to 139
15 | CC(C)OP(=O)(OC(C)C)c1cccc2c(-c3ccc(F)cc3)cc(-c3ccc(F)cc3)nc12 [7n, Diisopropyl (2,4-bis(4-fluorophenyl)quinolin-8-yl)phosphonate] | 10.6 ± 1.73 | 19.8 ± 3.83 | 4.86 ± 0.5 | 43.31 | 113 to 115
16 | CCOP(=O)(OCC)c1cccc2c(-c3ccccc3)cc(-c3cccc4ccccc34)nc12 [7f, Diethyl (2-(naphthalen-1-yl)-4-phenylquinolin-8-yl)phosphonate] | 2.66 ± 0.16 | 4.54 ± 0.52 | 20.6 ± 2.19 | 7.5 | 140 to 142
17 | CCOP(=O)(OCC)c1cccc2c(-c3ccccc3)cc(-c3ccc4ccccc4c3)nc12 [7e, Diethyl (2-(naphthalen-2-yl)-4-phenylquinolin-8-yl)phosphonate] | 3.18 ± 0.27 | 1.33 ± 0.76 | 20.4 ± 1.57 | 18.36 | 135 to 137
